According to ChEMBL document CHEMBL1201862, “PubChem BioAssay data set” (2004):
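Growth conditions: 96-well plates. Treatment: test compound, 48 hours, 5 concentrations. Analysis: linear interpolation between bracketing concentrations; unreached endpoints set to highest concentration. GI50: concentration for 50% inhibition of growth.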 Activity calls are given as the source filed them. No stated cut-off is given here; in the data, active = GI50 up to about 1.1 µM and inactive = higher.

How the values were obtained:
Assay in all cases: growth of human tumour cells (NCI), 48 h
[1] = system: A498
[2] = system: A549
[3] = system: ACHN
[4] = system: CAKI-1
[5] = system: CCRF-CEM
[6] = system: COLO 205
[7] = system: DLD-1
[8] = system: DMS-114
[9] = system: DMS-273
[10] = system: EKVX
[11] = system: HCC 2998
[12] = system: HCT-116
[13] = system: HL-60
[14] = system: HOP-18
[15] = system: HOP-62
[16] = system: HOP-92
[17] = system: HT-29
[18] = system: IGROV-1
[19] = system: K562
[20] = system: KM-20L2
[21] = system: KM12
[22] = system: LOX IMVI
[23] = system: M19-MEL
[24] = system: MOLT-4
[25] = system: Malme-3M
[26] = system: NCI-H226
[27] = system: NCI-H23
[28] = system: NCI-H522
[29] = system: OVCAR-3
[30] = system: OVCAR-4
[31] = system: OVCAR-5
[32] = system: OVCAR-8
[33] = system: RXF 393
[34] = system: SF-268
[35] = system: SF-295
[36] = system: SF-539
[37] = system: SK-MEL-28
[38] = system: SK-MEL-2
[39] = system: SK-MEL-5
[40] = system: SK-OV-3
[41] = system: SN12C
[42] = system: SNB-19
[43] = system: SNB-75
[44] = system: SNB-78
[45] = system: SR
[46] = system: SW-620
[47] = system: TK-10
[48] = system: U-251
[49] = system: UACC-257
[50] = system: UACC-62
[51] = system: UO-31
[52] = system: 786-0
[53] = system: HCT-15
[54] = system: LXFL 529
[55] = system: M14
[56] = system: NCI-H460
[57] = system: RPMI-8226

Which GI50 [1] does the source give for `O=c1oc2ccccc2n1P(=O)(Oc1ccc(Cl)cc1)n1c(=O)oc2ccccc21` here?
Its GI50 is > 100 µM (inactive).

What about the GI50 [2] of the same compound?
The GI50 was > 100 µM (inactive).

And the GI50 [3]?
The GI50 was > 100 µM (inactive).

What about the GI50 [4] of the same compound?
The GI50 was > 100 µM (inactive).

What about the GI50 [5] of the same compound?
The GI50 was 18.5 µM (inactive).

What about the GI50 [6] of the same compound?
Its GI50 is > 100 µM (inactive).

What about the GI50 [7] of the same compound?
Its GI50 is > 100 µM (inactive).

What about the GI50 [8] of the same compound?
Its GI50 is > 100 µM (inactive).

What about the GI50 [9] of the same compound?
Its GI50 is 78.9 µM (inactive).

What about the GI50 [10] of the same compound?
Its GI50 is > 100 µM (inactive).

And the GI50 [11]?
Its GI50 is 46.6 µM (inactive).

And the GI50 [12]?
The GI50 was > 100 µM (inactive).

And the GI50 [13]?
Its GI50 is 41.8 µM (inactive).

What about the GI50 [14] of the same compound?
The GI50 was > 100 µM (inactive).

And the GI50 [15]?
Its GI50 is > 100 µM (inactive).

And the GI50 [16]?
The GI50 was > 100 µM (inactive).

And the GI50 [17]?
Its GI50 is > 100 µM (inactive).

And the GI50 [18]?
The GI50 was > 100 µM (inactive).

And the GI50 [19]?
The GI50 was 42.2 µM (inactive).

And the GI50 [20]?
The GI50 was > 100 µM (inactive).

And the GI50 [21]?
The GI50 was 85.5 µM (inactive).

What about the GI50 [22] of the same compound?
Its GI50 is > 100 µM (inactive).

What about the GI50 [23] of the same compound?
The GI50 was > 100 µM (inactive).

What about the GI50 [24] of the same compound?
Its GI50 is 39.5 µM (inactive).

What about the GI50 [25] of the same compound?
The GI50 was > 100 µM (inactive).

And the GI50 [26]?
Its GI50 is > 100 µM (inactive).

And the GI50 [27]?
Its GI50 is > 100 µM (inactive).

And the GI50 [28]?
The GI50 was > 100 µM (inactive).

And the GI50 [29]?
Its GI50 is > 100 µM (inactive).

And the GI50 [30]?
Its GI50 is > 100 µM (inactive).

What about the GI50 [31] of the same compound?
Its GI50 is > 100 µM (inactive).

And the GI50 [32]?
Its GI50 is > 100 µM (inactive).

What about the GI50 [33] of the same compound?
Its GI50 is > 100 µM (inactive).

What about the GI50 [34] of the same compound?
Its GI50 is > 100 µM (inactive).

What about the GI50 [35] of the same compound?
The GI50 was 93.8 µM (inactive).

And the GI50 [36]?
Its GI50 is > 100 µM (inactive).

And the GI50 [37]?
The GI50 was > 100 µM (inactive).

What about the GI50 [38] of the same compound?
The GI50 was 55 µM (inactive).

And the GI50 [39]?
The GI50 was > 100 µM (inactive).

What about the GI50 [40] of the same compound?
Its GI50 is > 100 µM (inactive).

And the GI50 [41]?
The GI50 was > 100 µM (inactive).

And the GI50 [42]?
Its GI50 is > 100 µM (inactive).

What about the GI50 [43] of the same compound?
The GI50 was > 100 µM (inactive).

And the GI50 [44]?
Its GI50 is > 100 µM (inactive).

And the GI50 [45]?
The GI50 was > 100 µM (inactive).

What about the GI50 [46] of the same compound?
The GI50 was > 100 µM (inactive).

And the GI50 [47]?
The GI50 was > 100 µM (inactive).

And the GI50 [48]?
The GI50 was > 100 µM (inactive).

And the GI50 [49]?
Its GI50 is > 100 µM (inactive).

What about the GI50 [50] of the same compound?
The GI50 was 61 µM (inactive).

And the GI50 [51]?
The GI50 was > 100 µM (inactive).

Which GI50 [52] does the source give for `COC(=O)C1=C(C)C(=O)C2(CCCCCC2C(=O)OC)C1` (stereo unspecified) here?
The GI50 was > 100 µM (inactive).

What about the GI50 [1] of the same compound?
The GI50 was > 100 µM (inactive).

What about the GI50 [2] of the same compound?
Its GI50 is > 100 µM (inactive).

And the GI50 [3]?
The GI50 was > 100 µM (inactive).

And the GI50 [4]?
Its GI50 is > 100 µM (inactive).

What about the GI50 [5] of the same compound?
The GI50 was > 100 µM (inactive).

And the GI50 [6]?
The GI50 was > 100 µM (inactive).

What about the GI50 [7] of the same compound?
Its GI50 is > 100 µM (inactive).

What about the GI50 [8] of the same compound?
Its GI50 is > 100 µM (inactive).

And the GI50 [9]?
The GI50 was > 100 µM (inactive).

And the GI50 [10]?
Its GI50 is > 100 µM (inactive).

What about the GI50 [11] of the same compound?
Its GI50 is > 100 µM (inactive).

What about the GI50 [12] of the same compound?
The GI50 was > 100 µM (inactive).

What about the GI50 [53] of the same compound?
Its GI50 is over 100 µM.

What about the GI50 [13] of the same compound?
Its GI50 is > 100 µM (inactive).

What about the GI50 [14] of the same compound?
Its GI50 is > 100 µM (inactive).

What about the GI50 [15] of the same compound?
Its GI50 is 68.7 µM (inactive).

What about the GI50 [16] of the same compound?
Its GI50 is > 100 µM (inactive).

And the GI50 [17]?
Its GI50 is > 100 µM (inactive).

And the GI50 [18]?
The GI50 was > 100 µM (inactive).

What about the GI50 [19] of the same compound?
Its GI50 is > 100 µM (inactive).

And the GI50 [20]?
Its GI50 is > 100 µM (inactive).

What about the GI50 [21] of the same compound?
Its GI50 is > 100 µM (inactive).

What about the GI50 [54] of the same compound?
The GI50 was > 100 µM (inactive).

What about the GI50 [55] of the same compound?
The GI50 was > 100 µM (inactive).

What about the GI50 [23] of the same compound?
Its GI50 is > 100 µM (inactive).

And the GI50 [24]?
The GI50 was > 100 µM (inactive).

What about the GI50 [25] of the same compound?
The GI50 was > 100 µM (inactive).

What about the GI50 [26] of the same compound?
The GI50 was > 100 µM (inactive).

And the GI50 [27]?
Its GI50 is > 100 µM (inactive).

What about the GI50 [56] of the same compound?
The GI50 was > 100 µM (inactive).

And the GI50 [28]?
The GI50 was 65.2 µM (inactive).

And the GI50 [30]?
Its GI50 is > 100 µM (inactive).

And the GI50 [31]?
Its GI50 is > 100 µM (inactive).

And the GI50 [32]?
The GI50 was > 100 µM (inactive).

And the GI50 [57]?
The GI50 was > 100 µM (inactive).

And the GI50 [33]?
The GI50 was > 100 µM (inactive).

And the GI50 [34]?
The GI50 was > 100 µM (inactive).

What about the GI50 [35] of the same compound?
Its GI50 is > 100 µM (inactive).

What about the GI50 [36] of the same compound?
The GI50 was 63.7 µM (inactive).

What about the GI50 [37] of the same compound?
The GI50 was > 100 µM (inactive).

What about the GI50 [38] of the same compound?
Its GI50 is > 100 µM (inactive).

And the GI50 [39]?
The GI50 was > 100 µM (inactive).

And the GI50 [40]?
The GI50 was > 100 µM (inactive).

What about the GI50 [41] of the same compound?
The GI50 was > 100 µM (inactive).

What about the GI50 [42] of the same compound?
Its GI50 is > 100 µM (inactive).

And the GI50 [43]?
Its GI50 is > 100 µM (inactive).

What about the GI50 [44] of the same compound?
The GI50 was > 100 µM (inactive).

And the GI50 [45]?
The GI50 was > 100 µM (inactive).

And the GI50 [46]?
The GI50 was > 100 µM (inactive).

What about the GI50 [47] of the same compound?
The GI50 was > 100 µM (inactive).

What about the GI50 [48] of the same compound?
Its GI50 is > 100 µM (inactive).

What about the GI50 [49] of the same compound?
Its GI50 is > 100 µM (inactive).

What about the GI50 [50] of the same compound?
The GI50 was > 100 µM (inactive).

What about the GI50 [51] of the same compound?
The GI50 was > 100 µM (inactive).
